From article PMC8330742, “New benzothieno[2,3-c]pyridines as non-steroidal CYP17 inhibitors: design, synthesis, anticancer screening, apoptosis induction, and in silico ADME profile studies” (Journal of Enzyme Inhibition and Medicinal Chemistry, 2021)

Legend:
NCI-H460 = test: NCI-60 SRB screen; type: cell-based, human; settings: Homo sapiens; NCI-H460; single dose 10^−5 M; read-out: Growth inhibition (%)
EKVX = test: NCI-60 SRB screen; type: cell-based, human; settings: Homo sapiens, single dose 10^−5 M, read-out: Growth inhibition (%)
NCI-H522 = test: NCI-60 SRB screen; type: cell-based, human; settings: Homo sapiens; NCI-H522; single dose 10^−5 M; read-out: Growth inhibition (%)
LOX IMVI = test: NCI-60 SRB screen; type: cell-based, human; settings: Homo sapiens, single dose 10^−5 M, read-out: Growth inhibition (%)
SK-MEL-28 = test: NCI-60 SRB screen; type: cell-based; settings: Homo sapiens; SK-MEL-28; single dose 10^−5 M; read-out: Growth inhibition (%)
RXF 393 = test: NCI-60 SRB screen; type: cell-based, human; settings: Homo sapiens; RXF 393; single dose 10^−5 M; read-out: Growth inhibition (%)
COLO 205 = test: NCI-60 SRB screen; type: cell-based, human; settings: Homo sapiens; COLO 205; single dose 10^−5 M; read-out: Growth inhibition (%)
SW-620 = test: NCI-60 SRB screen; type: cell-based; settings: Homo sapiens; SW-620; single dose 10^−5 M; read-out: Growth inhibition (%)
UO-31 = test: NCI-60 SRB screen; type: cell-based, human; settings: Homo sapiens; UO-31; single dose 10^−5 M; read-out: Growth inhibition (%)
SK-MEL-5 = test: NCI-60 SRB screen; type: cell-based, human; settings: Homo sapiens; SK-MEL-5; single dose 10^−5 M; read-out: Growth inhibition (%)
HCC-2998 = test: NCI-60 SRB screen; type: cell-based, human; settings: Homo sapiens; HCC-2998; single dose 10^−5 M; read-out: Growth inhibition (%)
CCRF-CEM = test: NCI-60 SRB screen; type: cell-based; settings: Homo sapiens, single dose 10^−5 M, read-out: Growth inhibition (%)
OVCAR-8 = test: NCI-60 SRB screen; type: cell-based, human; settings: Homo sapiens; OVCAR-8; single dose 10^−5 M; read-out: Growth inhibition (%)
OVCAR-4 = test: NCI-60 SRB screen; type: cell-based, human; settings: Homo sapiens; OVCAR-4; single dose 10^−5 M; read-out: Growth inhibition (%)
CAKI-1 = test: NCI-60 SRB screen; type: cell-based, human; settings: Homo sapiens; CAKI-1; single dose 10^−5 M; read-out: Growth inhibition (%)
NCI-H226 = test: NCI-60 SRB screen; type: cell-based, human; settings: Homo sapiens; NCI-H226; single dose 10^−5 M; read-out: Growth inhibition (%)
[1] = system: panel of 60 cancer cell lines; test: NCI-60 SRB screen, mean or range over the panel; type: cell-based, human; settings: Homo sapiens; mean over the cell lines; single dose 10^−5 M; read-out: Mean growth inhibition (%)
MDA-MB-435 = test: NCI-60 SRB screen; type: cell-based; settings: Homo sapiens, MDA-MB-435, read-out: Growth inhibition (%)
SF-295 = test: NCI-60 SRB screen; type: cell-based, human; settings: Homo sapiens; SF-295; single dose 10^−5 M; read-out: Growth inhibition (%)
NCI/ADR-RES = test: NCI-60 SRB screen; type: cell-based, human; settings: Homo sapiens, single dose 10^−5 M, read-out: Growth inhibition (%)
HL-60(TB) = test: NCI-60 SRB screen; type: cell-based, human; settings: Homo sapiens; HL-60 (TB); single dose 10^−5 M; read-out: Growth inhibition (%)
IGROV1 = test: NCI-60 SRB screen; type: cell-based, human; settings: Homo sapiens, IGROV-1; IGROV1; single dose 10^−5 M; read-out: Growth inhibition (%)
UACC-257 = test: NCI-60 SRB screen; type: cell-based, human; settings: Homo sapiens, UACC-257; UACC-275 (so in the source); single dose 10^−5 M; read-out: Growth inhibition (%)
MOLT-4 = test: NCI-60 SRB screen; type: cell-based; settings: Homo sapiens; MOLT-4; single dose 10^−5 M; read-out: Growth inhibition (%)
HOP-92 = test: NCI-60 SRB screen; type: cell-based, human; settings: Homo sapiens; HOP-92; single dose 10^−5 M; read-out: Growth inhibition (%)
HOP-62 = test: NCI-60 SRB screen; type: cell-based, human; settings: Homo sapiens; HOP-62; single dose 10^−5 M; read-out: Growth inhibition (%)
SK-OV-3 = test: NCI-60 SRB screen; type: cell-based, human; settings: Homo sapiens; SK-OV-3; single dose 10^−5 M; read-out: Growth inhibition (%)
NCI-H23 = test: NCI-60 SRB screen; type: cell-based, human; settings: Homo sapiens; NCI-H23; single dose 10^−5 M; read-out: Growth inhibition (%)
K-562 = test: NCI-60 SRB screen; type: cell-based, human; settings: Homo sapiens, K562; K-562; single dose 10^−5 M; read-out: Growth inhibition (%)
A549/ATCC = test: NCI-60 SRB screen; type: cell-based, human; settings: Homo sapiens, single dose 10^−5 M, read-out: Growth inhibition (%)
786-0 = test: NCI-60 SRB screen; type: cell-based; settings: Homo sapiens; 786-0; single dose 10^−5 M; read-out: Growth inhibition (%)
NCI-H322M = test: NCI-60 SRB screen; type: cell-based, human; settings: Homo sapiens, single dose 10^−5 M, read-out: Growth inhibition (%)
HCT-15 = test: NCI-60 SRB screen; type: cell-based, human; settings: Homo sapiens; HCT-15; single dose 10^−5 M; read-out: Growth inhibition (%)
UACC-62 = test: NCI-60 SRB screen; type: cell-based, human; settings: Homo sapiens; UACC-62; single dose 10^−5 M; read-out: Growth inhibition (%)
OVCAR-3 = test: NCI-60 SRB screen; type: cell-based, human; settings: Homo sapiens; OVCAR-3; single dose 10^−5 M; read-out: Growth inhibition (%)
TK-10 = test: NCI-60 SRB screen; type: cell-based, human; settings: Homo sapiens; TK-10; single dose 10^−5 M; read-out: Growth inhibition (%)
KM12 = test: NCI-60 SRB screen; type: cell-based, human; settings: Homo sapiens; KM12; single dose 10^−5 M; read-out: Growth inhibition (%)
ACHN = test: NCI-60 SRB screen; type: cell-based; settings: Homo sapiens, single dose 10^−5 M, read-out: Growth inhibition (%)
SF-268 = test: NCI-60 SRB screen; type: cell-based, human; settings: Homo sapiens; SF-268; single dose 10^−5 M; read-out: Growth inhibition (%)
HCT-116 = test: NCI-60 SRB screen; type: cell-based, human; settings: Homo sapiens; HCT-116; single dose 10^−5 M; read-out: Growth inhibition (%)
SN12C = test: NCI-60 SRB screen; type: cell-based, human; settings: Homo sapiens, SN12C; SN 12 C; single dose 10^−5 M; read-out: Growth inhibition (%)
SR = test: NCI-60 SRB screen; type: cell-based; settings: Homo sapiens, single dose 10^−5 M, read-out: Growth inhibition (%)
M14 = test: NCI-60 SRB screen; type: cell-based, human; settings: Homo sapiens; M14; single dose 10^−5 M; read-out: Growth inhibition (%)
SK-MEL-2 = test: NCI-60 SRB screen; type: cell-based, human; settings: Homo sapiens; SK-MEL-2; single dose 10^−5 M; read-out: Growth inhibition (%)

Structure (SMILES): CCN1CCN(C2C(=O)NC(c3cccc([N+](=O)[O-])c3)c3sc4c(F)cccc4c32)CC1 (stereo not shown) [Compound 6a, 4-(4-Ethylpiperazin-1-yl)-8-fluoro-1-(3-nitrophenyl)-1,2-dihydro[1]benzo thieno[2,3-c]pyridin-3(4H)-one]
- inhibition at 10 µM (NCI-H460): 0.82%
- inhibition at 10 µM (EKVX): -2.24%
- inhibition at 10 µM (NCI-H522): 0.67%
- inhibition at 10 µM (LOX IMVI): -2.53%
- inhibition at 10 µM (SK-MEL-28): -13%
- inhibition at 10 µM (RXF 393): -24%
- inhibition at 10 µM (COLO 205): -13.8%
- inhibition at 10 µM (SW-620): 5.15%
- inhibition at 10 µM (UO-31): 35.8%
- inhibition at 10 µM (SK-MEL-5): -1.71%
- inhibition at 10 µM (HCC-2998): -18.1%
- inhibition at 10 µM (CCRF-CEM): -2.46%
- inhibition at 10 µM (OVCAR-8): 2.02%
- inhibition at 10 µM (OVCAR-4): -6.65%
- inhibition at 10 µM (CAKI-1): 18.4%
- inhibition at 10 µM (NCI-H226): 10%
- inhibition at 10 µM [1]: -0.71%
- inhibition at 10 µM (MDA-MB-435): -2.64%
- inhibition at 10 µM (SF-295): -3.39%
- inhibition at 10 µM (NCI/ADR-RES): -2.46%
- inhibition at 10 µM (HL-60(TB)): -2%
- inhibition at 10 µM (IGROV1): 16.4%
- inhibition at 10 µM (UACC-257): -14.7%
- inhibition at 10 µM (MOLT-4): 9.9%
- inhibition at 10 µM (HOP-92): -1.02%
- inhibition at 10 µM (HOP-62): 8.57%
- inhibition at 10 µM (SK-OV-3): -1.47%
- inhibition at 10 µM (NCI-H23): -1.88%
- inhibition at 10 µM (K-562): 11%
- inhibition at 10 µM (A549/ATCC): -7.34%
- inhibition at 10 µM (786-0): -15%
- inhibition at 10 µM (NCI-H322M): 0.49%
- inhibition at 10 µM (HCT-15): -7.17%
- inhibition at 10 µM (UACC-62): 8.9%
- inhibition at 10 µM (OVCAR-3): 0.35%
- inhibition at 10 µM (TK-10): -51.9%
- inhibition at 10 µM (KM12): -0.94%
- inhibition at 10 µM (ACHN): 6.81%
- inhibition at 10 µM (SF-268): 7.67%
- inhibition at 10 µM (HCT-116): 6.68%
- inhibition at 10 µM (SN12C): 2.15%
- inhibition at 10 µM (SR): 8.6%
- inhibition at 10 µM (M14): -1.65%
- inhibition at 10 µM (SK-MEL-2): -13.3%

Structure (SMILES): O=C1NC(c2cccc([N+](=O)[O-])c2)c2sc3c(F)cccc3c2C1N1CCOCC1 (stereo not shown) [Compound 6b, 8-Fluoro-4-morpholino-1(3-nitrophenyl)-1,2-dihydro[1]benzothieno[2,3-c]pyridin-3(4H)-one]
- inhibition at 10 µM (NCI-H460): 0.21%
- inhibition at 10 µM (EKVX): 2.98%
- inhibition at 10 µM (NCI-H522): 10.4%
- inhibition at 10 µM (LOX IMVI): -0.6%
- inhibition at 10 µM (SK-MEL-28): -11.5%
- inhibition at 10 µM (RXF 393): 6.95%
- inhibition at 10 µM (COLO 205): -10.9%
- inhibition at 10 µM (SW-620): 7.48%
- inhibition at 10 µM (UO-31): 31.8%
- inhibition at 10 µM (SK-MEL-5): 0.57%
- inhibition at 10 µM (HCC-2998): -9.62%
- inhibition at 10 µM (CCRF-CEM): -0.89%
- inhibition at 10 µM (OVCAR-8): 2.6%
- inhibition at 10 µM (OVCAR-4): 0.3%
- inhibition at 10 µM (CAKI-1): 23%
- inhibition at 10 µM (NCI-H226): 19.4%
- inhibition at 10 µM [1]: 3.19%
- inhibition at 10 µM (MDA-MB-435): -9.63%
- inhibition at 10 µM (SF-295): 1.1%
- inhibition at 10 µM (NCI/ADR-RES): 1.78%
- inhibition at 10 µM (HL-60(TB)): 3%
- inhibition at 10 µM (IGROV1): 21.5%
- inhibition at 10 µM (UACC-257): -10.7%
- inhibition at 10 µM (MOLT-4): 7.9%
- inhibition at 10 µM (HOP-92): 13.3%
- inhibition at 10 µM (HOP-62): 12.7%
- inhibition at 10 µM (SK-OV-3): 0.4%
- inhibition at 10 µM (NCI-H23): 5.78%
- inhibition at 10 µM (K-562): 6.63%
- inhibition at 10 µM (A549/ATCC): -0.83%
- inhibition at 10 µM (786-0): -11.1%
- inhibition at 10 µM (NCI-H322M): -2.43%
- inhibition at 10 µM (HCT-15): -4.99%
- inhibition at 10 µM (UACC-62): 3.55%
- inhibition at 10 µM (OVCAR-3): 1.9%
- inhibition at 10 µM (TK-10): -28.2%
- inhibition at 10 µM (KM12): 2.35%
- inhibition at 10 µM (ACHN): 4.34%
- inhibition at 10 µM (SF-268): 6.1%
- inhibition at 10 µM (HCT-116): 12.5%
- inhibition at 10 µM (SN12C): 2.85%
- inhibition at 10 µM (SR): 14.4%
- inhibition at 10 µM (M14): -1.23%
- inhibition at 10 µM (SK-MEL-2): -12.7%
